{"source": "patent US20050043271A1", "about": "“Heparin-containing ophthalmic agent” (priority 2001, published 2005)", "key": {"mast cells": {"test_system": "mast cells", "settings": "without direct antihistamine effect; inhalative and intravenous application; cited from earlier work"}, "[1]": {"test_system": "allergically caused conjunctival inflammation", "settings": "high-dosage, topical application to the eye, animals; cited from earlier work"}, "[2]": {"test": "tear film tearing time (fluorescein, slit lamp)", "assay_type": "in vivo", "settings": "concentration of 0.1% by weight to 0.3% by weight", "excerpt": "A further diagnostic parameter in regard to diagnosis of the “dry eye” syndrome is the tear film tearing time which makes it possible to provide information about the quality of the tear fluid. In that case for example the tear film is dyed with fluorescein and the patient is then asked to keep the eyes open as long as possible without a blink reflex. A slit lamp is then used to establish when the tear film tears open for the first time. If the period of time is less than 10 seconds, there is the suspicion of the “dry eye” syndrome."}, "dry eyes": {"test_system": "dry eyes", "test": "subjective feeling of patients in treatment of dry eyes", "assay_type": "in vivo", "settings": "0.1% by weight in the composition", "excerpt": "Aqueous sodium hyaluronate solutions are fluids with non-Newtonian flow properties. By virtue of that physical property, aqueous sodium hyaluronate solutions are excellently well suited as slip and lubricating agents with a good cling effect and a prolonged residence time on the conjunctival and corneal epithelia, without adversely affecting visual efficiency."}, "[3]": {"test_system": "cornea epithelium cells of rabbits", "test": "epithelium cell migration", "assay_type": "cell-based", "settings": "0.1% by weight solution"}}}
{"substance": "heparin", "values": [{"measurement": "degranulation, caused by antigens, of mast cells", "setting": "mast cells", "value": "inhibits degranulation"}, {"measurement": "treatment of allergically caused conjunctival inflammation", "setting": "[1]", "value": "effective"}]}
{"substance": "hyaluronic acid", "values": [{"measurement": "prolonging the tear film tearing time", "setting": "[2]", "value": "highly effective"}]}
{"substance": "sodium hyaluronate", "values": [{"measurement": "subjective feeling of the patients", "setting": "dry eyes", "value": "considerably improves"}, {"measurement": "epithelium cell migration", "setting": "[3]", "value": "increased epithelium cell migration"}]}
